Legend:
ZAP70 = assay: Phospho ZAP70 staining after anti-CD3/CD28 stimulation; format: cell-based, mouse; conditions: 10 μM, 24 hours
Protocol: The following day, cells were treated with either DMSO or of FGIN-1-27 (10 μM). For phospho-ZAP70 analyses, cells were stained after 24 hours of treatment using 10 μg/ml of biotinylated anti-CD3 (145-2C11, BD Biosciences) and anti-CD28 (37.51, BD Biosciences) antibodies on ice for 15 minutes, washed, and stimulated in presence of 20 μg/ml of Streptavidin for 10 minutes at 37 degrees. Cells were then fixed in 2% PFA, permeabilized in Methanol/Acetone and stained with anti-phospho ZAP70 antibody (n3kobu5, eBioscience) and anti-CD4 (RM4-5, eBioscience). For phospho-STAT3 analyses, cells were cultured for additional 24 hours in IL-6 free media, before stimulation with 100 ng/ml of mIL-6 for 30 minutes. Cells were then fixed in 2% PFA, permeabilized in Methanol/Acetone and stained with anti-phospho-STAT3 antibody (4/P-STAT3, BD Biosciences) and anti-CD4. Dead cells were excluded using Live/Dead […] (Thermo Fisher) staining prior to stimulation. page 3: Supplementary Figur es Fig S1 (a) Genomic browser screenshot of Tspo depicting normalized RNA-seq read coverage (RPM) in different T cell subsets. Data were downloaded from NCBI GEO (accession number GSE40918) and processed as in Figure 4A. […] (g) Transcript levels for S ta t3 after 24 hours of treatment with DMSO or FGIN-1-27 quantified by qPCR. […]

[1] = tested on: reactive oxygen species (ROS); assay: Intracellular ROS with DCFDA; format: cell-based, mouse; conditions: 24-hour post treatment, 5 and 10 µM
Protocol: Figure 5 FGIN-1-27 induces amino acid starvation response (AAR). (a) MA-plot showing shrunken log2 fold-changes of detected genes between the DMSO and FGIN-1-27 RNA-seq samples, ranked by average normalized count. […] (b) Transcript levels for the indicated genes after 24 hours of treatment with DMSO or FGIN-1-27 quantified by qPCR. The error bars represent SD. (c) Western blot analysis for phosphorylated eIF2α and ATF4 24 hours after treatment with DMSO or FGIN-1-27 (5 and 10 μM). Data are representative of 3 independent experiments. (d) Amino acids in Th17 cells measured 72 hours after treatment with FGIN-1-27. The error bars represent SD. (e) ROS was measured using cell permeant reagent 2',7' -dichlorofluorescin diacetate (DCFDA) at 24 hours following treatment with FGIN-1-27. Filled grey histogram-DMSO, dotted line-FGIN-1-27 (10 μM) and dashed line indicates FGIN-1-27 (5 μM). (f) Dose response plot showing effect of FGIN-1-27 on intracellular IL-17 after pre-treatment with NAC (1 μM). Data are normalized using DMSO treated cells as 100% and the error bars represent SD. Increased amino acid synthesis and transport is characteristic of the amino acid starvation response (AAR)[20]. […] Induction of ATF4 can be an indication of oxidative stress and we measured reactive oxygen species (ROS) using the cell permeant reagent 2',7' -dichlorofluorescin diacetate (DCFDA).

[2] = tested on: S6 ribosomal protein (Ser 235/236) and mTOR (Ser 2448); assay: Phospho S6 and phospho mTOR staining; format: cell-based, mouse; conditions: 10, 5 and 2.5 µM
Protocol: For phospho-S6 analyses, cells were cultured for 3 hours in Th17 polarization media on anti-CD3/CD28 coated plates. Cells were then fixed after fixation and permeabilization with a Transcription Factor Staining kit (eBioscience) and stained with anti-phospho-S6 antibody (S235/236, Cell Signaling) and anti-CD4. Dead cells were excluded using Live/Dead stain prior to fixation. For mTOR analyses, anti-phospho-mTOR antibody was used (Ser2448, eBioscience). page 6: […] blot analysis for phosphorylated eIF2α and ATF4 24 hours after treatment with DMSO or FGIN-1-27 (5 and 10 μM). (b) Intracellular phospho S6 ([…]/236) Th17 cells treated with DMSO or FGIN-1-27 […] The black line represents DMSO and the grey filled histogram represent FGIN-1-27 (10μM). The dotted lines (5μ M) and the dashed line represents staining after 2.5μM of FGIN-1-27 treatment. (c) Intracellular phospho mTOR ([…]) Th17 cells treated with DMSO or FGIN-1-27 […] The black line represents DMSO and the grey filled histogram represent FGIN-1-27 (10μM). The dotted lines (5μ M) and the dashed line represents staining after 2.5μM of FGIN-1-27 treatment.

[3] = parameters: method as in PMID 21119734, PMID 1326631, PMID 29698632; conditions: cited from earlier work

CCCCCCN(CCCCCC)C(=O)Cc1c(-c2ccc(F)cc2)[nH]c2ccccc12 [FGIN-1-27, N, N-di-n-hexyl 2-(4-fluorophenyl) indole-3-acetamide]
phosphorylation of ZAP70 (ZAP70): did not phosphorylate ZAP70 | intracellular ROS levels [1]: dose dependent increase | phosphorylation of S6 ribosomal protein (Ser 235/236) and mTOR (Ser 2448) [2]: dose-dependent decrease | crossing of the blood brain barrier [3]: can cross the blood brain barrier
